According to ChEMBL document CHEMBL1139812, “Kinesin spindle protein (KSP) inhibitors. Part 8: Design and synthesis of 1,4-diaryl-4,5-dihydropyrazoles as potent inhibitors of the mitotic kinesin KSP” (Bioorg Med Chem Lett, 2007):

Tests used:
[1] = target: T1, Kinesin-like protein KIF11 (Homo sapiens, UniProt P52732); test: Inhibition of kinesin spindle protein by ATPase assay
T1 sequence (P52732 whole entry): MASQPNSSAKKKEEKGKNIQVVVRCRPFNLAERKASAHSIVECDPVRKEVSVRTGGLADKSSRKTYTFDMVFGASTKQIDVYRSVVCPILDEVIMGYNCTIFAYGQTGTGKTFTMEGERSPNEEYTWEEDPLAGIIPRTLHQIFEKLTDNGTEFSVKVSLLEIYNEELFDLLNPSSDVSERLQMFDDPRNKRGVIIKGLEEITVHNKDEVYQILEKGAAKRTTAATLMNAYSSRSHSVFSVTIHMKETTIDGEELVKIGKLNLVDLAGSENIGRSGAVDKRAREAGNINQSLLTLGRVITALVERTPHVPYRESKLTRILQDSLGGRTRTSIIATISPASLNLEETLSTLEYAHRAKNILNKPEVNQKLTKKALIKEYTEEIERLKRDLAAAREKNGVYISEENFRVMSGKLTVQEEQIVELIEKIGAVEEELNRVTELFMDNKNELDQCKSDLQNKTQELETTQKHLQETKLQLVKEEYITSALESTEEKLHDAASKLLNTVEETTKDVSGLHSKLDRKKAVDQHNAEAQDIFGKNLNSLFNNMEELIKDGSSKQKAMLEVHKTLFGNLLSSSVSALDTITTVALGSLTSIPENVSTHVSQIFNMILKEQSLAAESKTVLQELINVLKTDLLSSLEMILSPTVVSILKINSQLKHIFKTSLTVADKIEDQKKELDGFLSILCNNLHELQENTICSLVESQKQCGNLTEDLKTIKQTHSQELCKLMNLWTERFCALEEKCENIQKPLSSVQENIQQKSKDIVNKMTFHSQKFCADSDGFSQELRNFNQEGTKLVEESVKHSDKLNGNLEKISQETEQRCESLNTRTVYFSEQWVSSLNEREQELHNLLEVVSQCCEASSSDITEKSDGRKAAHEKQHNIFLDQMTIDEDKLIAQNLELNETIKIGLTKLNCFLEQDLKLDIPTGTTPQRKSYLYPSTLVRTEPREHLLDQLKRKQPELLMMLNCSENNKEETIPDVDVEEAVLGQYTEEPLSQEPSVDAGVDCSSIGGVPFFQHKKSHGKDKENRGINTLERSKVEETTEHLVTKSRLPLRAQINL

[2] = target: T1, Kinesin-like protein KIF11; test: Inhibition of KSP-induced nucleolin phosphorylation in cell-based mitotic arrest assay; assay type: functional
[3] = Solubility at pH 4; assay type: physicochemical; conditions: buffer
A2780 = test: Mitotic arrest in human A2780 cells xenografted nude mouse assessed as induction of phospho-histone H3 at 3.5 mg/kg; assay type: functional
KB 3-1 = test: Ratio of IC50 for KB-V-1 cells to IC50 for KB-3-1 cells; assay type: functional, Homo sapiens
[4] = target: Voltage-gated inwardly rectifying potassium channel KCNH2 (Homo sapiens, UniProt Q12809); test: Inhibition of hERG expressed in HEK cells; assay type: toxicity, cell-based, HEK293
Sequence of Voltage-gated inwardly rectifying potassium channel KCNH2 (Q12809 whole entry): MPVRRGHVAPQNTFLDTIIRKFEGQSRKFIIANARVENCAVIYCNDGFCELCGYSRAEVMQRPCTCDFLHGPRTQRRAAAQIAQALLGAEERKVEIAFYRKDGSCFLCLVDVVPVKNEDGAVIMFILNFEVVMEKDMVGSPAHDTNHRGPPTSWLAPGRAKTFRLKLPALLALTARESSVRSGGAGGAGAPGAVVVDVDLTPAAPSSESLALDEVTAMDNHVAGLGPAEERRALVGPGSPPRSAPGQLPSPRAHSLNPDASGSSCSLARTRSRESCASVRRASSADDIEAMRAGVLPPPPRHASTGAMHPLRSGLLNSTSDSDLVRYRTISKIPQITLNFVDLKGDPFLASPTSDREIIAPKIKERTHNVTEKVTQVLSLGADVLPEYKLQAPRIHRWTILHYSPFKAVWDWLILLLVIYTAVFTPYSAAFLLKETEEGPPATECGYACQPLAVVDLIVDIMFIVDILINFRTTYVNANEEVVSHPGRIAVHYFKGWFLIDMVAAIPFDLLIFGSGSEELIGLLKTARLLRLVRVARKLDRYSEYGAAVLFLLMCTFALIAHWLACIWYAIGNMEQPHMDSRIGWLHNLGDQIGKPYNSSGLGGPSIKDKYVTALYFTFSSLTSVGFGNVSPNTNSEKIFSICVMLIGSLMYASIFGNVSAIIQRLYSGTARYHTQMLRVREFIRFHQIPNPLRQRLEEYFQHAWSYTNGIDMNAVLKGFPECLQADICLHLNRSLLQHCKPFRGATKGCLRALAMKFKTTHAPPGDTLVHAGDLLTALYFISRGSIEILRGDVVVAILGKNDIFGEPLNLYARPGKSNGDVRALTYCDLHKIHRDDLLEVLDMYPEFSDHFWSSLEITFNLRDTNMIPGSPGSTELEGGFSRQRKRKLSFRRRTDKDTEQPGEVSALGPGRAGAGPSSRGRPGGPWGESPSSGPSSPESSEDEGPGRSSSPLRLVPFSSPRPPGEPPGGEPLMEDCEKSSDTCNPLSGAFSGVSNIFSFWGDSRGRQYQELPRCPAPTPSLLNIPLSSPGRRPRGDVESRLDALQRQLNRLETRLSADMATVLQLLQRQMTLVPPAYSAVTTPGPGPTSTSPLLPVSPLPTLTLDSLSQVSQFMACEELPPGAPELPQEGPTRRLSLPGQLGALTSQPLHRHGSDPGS

[5] = Protein binding in mouse plasma; assay type: ADME, cell-free; conditions: read-out: PB (converted)
Homo sapiens = organism: Homo sapiens; test: Protein binding in human plasma; conditions: read-out: PB (converted)

Row | Compound | IC50 [1] [nM] | EC50 [2] [nM] | other results
1 | CC(=O)C1=NN(c2cc(Cl)ccc2F)CC1(CCCN1CCN(C(C)=O)CC1)c1ccccc1 (racemic) | 3.9 | 46 | 
2 | CC(=O)C1=NN(c2cc(F)ccc2F)CC1(CCCN(C)Cc1cc(C)no1)c1ccccc1 (racemic) | 4 | 567 | 
3 | CC(=O)C1=NN(c2ccccc2F)CC1(CCCN1CCN(C(C)=O)CC1)c1ccccc1 (racemic) | 21.8 | 368 | 
4 | CC(=O)C1=NN2c3cc(F)ccc3OC[C@H]2[C@@]1(CCCN1CCN(C(C)=O)CC1)c1ccccc1 |  | 5 | solubility [3]: > 4000 µg/mL; EC99 (A2780): 100 nM
5 | CC(=O)C1=NN(c2cc(C)ccc2F)CC1(CCCN1CCN(C(C)=O)CC1)c1ccccc1 (racemic) | 2 | 27 | 
6 | CC(=O)C1=NN(c2cc(F)ccc2F)CC1(CCCN(C)C)c1ccccc1 (racemic) | 2.1 | 9.4 | 
7 | CC(=O)C1=NN(c2cc(C)ccc2F)C[C@@]1(CCCN(C)C)c1ccccc1 | 0.2 | 3.2 | solubility [3]: > 4000 µg/mL; Ratio IC50 (KB 3-1): 1.6; IC50 [4]: 3040 nM; EC99 (A2780): 67 nM; fraction unbound [5]: 0.07; fraction unbound (Homo sapiens): 0.04
8 | CC(=O)C1=NN(c2cc(C(F)(F)F)ccc2F)CC1(CCCN1CCN(C(C)=O)CC1)c1ccccc1 (racemic) | 10.1 | 208 | 
9 | CC(=O)C1=NN(c2cc(Br)ccc2F)CC1(CCCN1CCN(C(C)=O)CC1)c1ccccc1 (racemic) | 4.7 | 38 | 

The next lines start with results.

Row | IC50 [1] [nM] | EC50 [2] [nM] | Compound | other results
10 | 3.8 | 15 | CC(=O)C1=NN(c2cc(F)ccc2F)CC1(CCCN1CCCC1)c1ccccc1 (racemic) | 
11 | 3.8 | 78 | CC(=O)C1=NN(c2cc(F)ccc2F)CC1(CCCN1CCN(C(C)=O)CC1)c1ccccc1 (racemic) | 
12 | 16.5 | 138 | CC(=O)C1=NN(c2cc(F)ccc2F)CC1(CCCN1CCS(=O)(=O)CC1)c1ccccc1 (racemic) | 
13 | 4.2 | 53 | CC(=O)C1=NN(c2cc(F)ccc2F)CC1(CCCN1CCOCC1)c1ccccc1 (racemic) | 
14 | 1.2 | 11 | CC(=O)C1=NN(c2cc(F)ccc2F)CC1(CCCN1CC2CC1CO2)c1ccccc1 (racemic) | 
15 | 5.2 | 40 | CC(=O)C1=NN(c2cc(F)ccc2F)CC1(CCCN1CC(F)C1)c1ccccc1 (racemic) | 
